Consider two compounds from ChEMBL document CHEMBL5291721, “A preclinical secondary pharmacology resource illuminates target-adverse drug reaction associations of marketed drugs” (Nat Commun, 2023).

Molecules are shown by their SMILES. Bounds are passed on as bounds.

For assay [1], the target named is T1, Gamma-aminobutyric acid receptor subunit alpha-1 (Rattus norvegicus, UniProt P62813).
In assay [2] the target is Histamine H3 receptor (Homo sapiens, UniProt Q9Y5N1).
Assay [3] has as its target Adenosine receptor A2a (Homo sapiens, UniProt P29274).
Assay [4] deals with T2, Muscarinic acetylcholine receptor M2 (Homo sapiens, UniProt P08172).
T2 sequence (P08172 whole entry): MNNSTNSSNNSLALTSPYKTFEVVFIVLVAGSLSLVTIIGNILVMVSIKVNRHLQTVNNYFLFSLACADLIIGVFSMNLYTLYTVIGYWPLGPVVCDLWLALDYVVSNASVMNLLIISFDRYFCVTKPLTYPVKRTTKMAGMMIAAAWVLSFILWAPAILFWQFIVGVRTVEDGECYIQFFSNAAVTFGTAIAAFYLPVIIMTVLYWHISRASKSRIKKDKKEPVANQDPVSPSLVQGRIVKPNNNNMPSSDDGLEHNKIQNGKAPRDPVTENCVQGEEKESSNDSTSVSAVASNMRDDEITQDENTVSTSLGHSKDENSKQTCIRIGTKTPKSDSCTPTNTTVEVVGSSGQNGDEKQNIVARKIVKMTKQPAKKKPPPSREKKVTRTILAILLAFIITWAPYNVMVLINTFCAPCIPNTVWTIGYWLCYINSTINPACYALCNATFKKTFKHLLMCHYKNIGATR
In kind it is functional, cell-based.

Assay [5] concerns the target T3, 5-hydroxytryptamine receptor 1A (Homo sapiens, UniProt P08908).
T3 sequence (P08908 whole entry): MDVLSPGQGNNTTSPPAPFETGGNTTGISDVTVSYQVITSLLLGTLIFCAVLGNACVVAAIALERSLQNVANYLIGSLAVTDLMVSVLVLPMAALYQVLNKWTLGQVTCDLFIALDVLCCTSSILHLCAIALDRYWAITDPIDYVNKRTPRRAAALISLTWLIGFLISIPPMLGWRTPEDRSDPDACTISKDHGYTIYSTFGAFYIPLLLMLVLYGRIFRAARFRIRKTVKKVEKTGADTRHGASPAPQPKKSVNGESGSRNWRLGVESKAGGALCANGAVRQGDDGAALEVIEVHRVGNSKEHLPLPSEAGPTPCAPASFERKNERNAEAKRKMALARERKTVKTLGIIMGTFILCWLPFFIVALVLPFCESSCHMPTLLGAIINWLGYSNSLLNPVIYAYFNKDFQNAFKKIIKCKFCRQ
In kind it is functional, cell-based.

Assay [6] deals with T4, Progesterone receptor (Homo sapiens, UniProt P06401).
T4 sequence (P06401 whole entry): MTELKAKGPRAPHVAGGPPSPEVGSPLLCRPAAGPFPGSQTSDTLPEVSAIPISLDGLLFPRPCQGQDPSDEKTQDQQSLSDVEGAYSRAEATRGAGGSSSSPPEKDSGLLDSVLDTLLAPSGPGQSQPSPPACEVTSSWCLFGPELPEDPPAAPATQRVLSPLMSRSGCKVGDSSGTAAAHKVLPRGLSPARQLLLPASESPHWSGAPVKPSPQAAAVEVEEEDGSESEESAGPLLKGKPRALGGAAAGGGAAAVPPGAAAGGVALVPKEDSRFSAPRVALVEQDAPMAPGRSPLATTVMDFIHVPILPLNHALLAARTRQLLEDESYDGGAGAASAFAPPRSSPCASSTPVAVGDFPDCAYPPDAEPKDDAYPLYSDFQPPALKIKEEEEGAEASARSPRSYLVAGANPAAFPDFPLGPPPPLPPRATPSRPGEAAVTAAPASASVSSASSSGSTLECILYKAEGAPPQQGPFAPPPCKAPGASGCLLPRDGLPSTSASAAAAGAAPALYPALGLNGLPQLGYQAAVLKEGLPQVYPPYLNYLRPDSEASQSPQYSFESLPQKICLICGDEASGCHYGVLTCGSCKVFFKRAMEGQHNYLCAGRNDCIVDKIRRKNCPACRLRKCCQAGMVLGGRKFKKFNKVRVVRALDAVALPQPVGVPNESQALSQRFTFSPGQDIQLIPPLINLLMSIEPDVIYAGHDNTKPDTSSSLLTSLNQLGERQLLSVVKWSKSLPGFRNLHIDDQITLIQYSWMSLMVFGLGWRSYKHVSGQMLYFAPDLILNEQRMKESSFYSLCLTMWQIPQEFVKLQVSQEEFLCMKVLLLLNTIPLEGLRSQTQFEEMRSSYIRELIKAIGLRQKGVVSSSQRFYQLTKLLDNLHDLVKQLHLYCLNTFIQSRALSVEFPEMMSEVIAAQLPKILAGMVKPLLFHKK
The assay is classed as functional.

Assay [7] addresses Beta-2 adrenergic receptor (Homo sapiens, UniProt P07550).
The target of assay [8] is Voltage-dependent L-type calcium channel subunit alpha-1C (Rattus norvegicus, UniProt P22002). The assay is classed as functional.
Voltage-dependent L-type calcium channel subunit alpha-1C, sequence (P22002 whole entry): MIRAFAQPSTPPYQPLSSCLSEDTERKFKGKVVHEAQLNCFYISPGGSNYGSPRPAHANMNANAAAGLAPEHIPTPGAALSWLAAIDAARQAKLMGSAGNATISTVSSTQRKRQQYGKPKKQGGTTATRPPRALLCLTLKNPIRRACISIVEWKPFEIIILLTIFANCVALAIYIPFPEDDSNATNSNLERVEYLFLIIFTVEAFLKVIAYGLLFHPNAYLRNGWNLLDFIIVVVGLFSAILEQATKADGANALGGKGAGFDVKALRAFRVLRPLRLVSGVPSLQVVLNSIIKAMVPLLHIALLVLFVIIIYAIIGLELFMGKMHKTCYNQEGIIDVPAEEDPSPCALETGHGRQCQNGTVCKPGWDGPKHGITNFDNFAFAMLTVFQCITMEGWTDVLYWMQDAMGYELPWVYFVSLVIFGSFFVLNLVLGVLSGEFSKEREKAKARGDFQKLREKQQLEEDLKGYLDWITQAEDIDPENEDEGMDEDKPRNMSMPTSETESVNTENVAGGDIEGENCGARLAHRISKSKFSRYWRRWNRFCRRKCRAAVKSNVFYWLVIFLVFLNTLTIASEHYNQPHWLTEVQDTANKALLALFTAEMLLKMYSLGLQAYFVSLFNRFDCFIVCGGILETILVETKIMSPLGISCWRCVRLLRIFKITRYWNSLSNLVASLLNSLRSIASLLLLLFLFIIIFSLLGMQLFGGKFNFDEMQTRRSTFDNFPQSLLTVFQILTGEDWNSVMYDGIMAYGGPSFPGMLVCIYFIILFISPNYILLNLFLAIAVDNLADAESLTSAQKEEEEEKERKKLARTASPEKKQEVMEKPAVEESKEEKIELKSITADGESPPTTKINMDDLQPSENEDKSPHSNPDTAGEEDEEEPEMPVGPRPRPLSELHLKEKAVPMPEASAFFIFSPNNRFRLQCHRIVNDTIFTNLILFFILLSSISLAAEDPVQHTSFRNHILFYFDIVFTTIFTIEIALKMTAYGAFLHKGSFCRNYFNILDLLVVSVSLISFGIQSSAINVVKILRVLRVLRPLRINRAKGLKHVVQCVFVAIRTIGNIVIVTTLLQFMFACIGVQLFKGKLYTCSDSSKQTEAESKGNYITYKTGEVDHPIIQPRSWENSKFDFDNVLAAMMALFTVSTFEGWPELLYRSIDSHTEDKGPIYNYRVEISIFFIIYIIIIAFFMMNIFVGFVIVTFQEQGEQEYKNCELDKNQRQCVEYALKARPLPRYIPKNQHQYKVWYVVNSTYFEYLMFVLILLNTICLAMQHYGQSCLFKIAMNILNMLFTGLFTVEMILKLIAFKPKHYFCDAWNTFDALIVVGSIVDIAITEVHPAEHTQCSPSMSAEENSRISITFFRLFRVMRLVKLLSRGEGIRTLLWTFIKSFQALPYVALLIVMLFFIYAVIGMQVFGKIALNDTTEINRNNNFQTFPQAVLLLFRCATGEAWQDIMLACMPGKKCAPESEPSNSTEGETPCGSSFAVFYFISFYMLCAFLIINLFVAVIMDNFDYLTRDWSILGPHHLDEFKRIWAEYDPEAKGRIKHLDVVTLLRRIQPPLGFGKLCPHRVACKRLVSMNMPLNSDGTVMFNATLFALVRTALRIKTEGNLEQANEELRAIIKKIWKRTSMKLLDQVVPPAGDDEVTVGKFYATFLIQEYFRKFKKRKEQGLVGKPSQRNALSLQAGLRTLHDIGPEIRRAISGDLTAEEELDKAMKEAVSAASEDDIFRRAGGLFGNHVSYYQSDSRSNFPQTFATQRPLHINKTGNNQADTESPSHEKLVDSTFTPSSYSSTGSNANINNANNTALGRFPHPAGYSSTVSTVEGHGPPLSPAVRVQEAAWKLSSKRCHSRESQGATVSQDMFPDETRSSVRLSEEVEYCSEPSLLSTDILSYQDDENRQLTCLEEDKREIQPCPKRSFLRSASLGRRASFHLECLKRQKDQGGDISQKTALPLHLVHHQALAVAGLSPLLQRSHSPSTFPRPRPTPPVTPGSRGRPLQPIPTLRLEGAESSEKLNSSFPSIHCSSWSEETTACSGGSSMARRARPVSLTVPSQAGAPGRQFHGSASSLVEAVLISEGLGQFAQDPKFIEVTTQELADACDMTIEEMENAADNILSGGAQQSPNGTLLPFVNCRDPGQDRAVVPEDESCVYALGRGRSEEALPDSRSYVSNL
The target of assay [9] is Growth hormone secretagogue receptor type 1 (Homo sapiens, UniProt Q92847).
Growth hormone secretagogue receptor type 1, sequence (Q92847 whole entry): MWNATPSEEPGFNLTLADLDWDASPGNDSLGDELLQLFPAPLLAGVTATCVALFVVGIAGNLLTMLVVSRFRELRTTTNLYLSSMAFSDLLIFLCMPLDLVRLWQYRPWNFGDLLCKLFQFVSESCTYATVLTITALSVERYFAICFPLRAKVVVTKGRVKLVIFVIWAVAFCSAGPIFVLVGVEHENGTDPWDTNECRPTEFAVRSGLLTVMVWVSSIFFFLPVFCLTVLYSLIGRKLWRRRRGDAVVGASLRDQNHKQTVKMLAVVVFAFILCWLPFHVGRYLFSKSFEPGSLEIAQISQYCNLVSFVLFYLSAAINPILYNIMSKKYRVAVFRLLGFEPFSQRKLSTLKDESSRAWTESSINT
The target in assay [10] is T5, Glucocorticoid receptor (Homo sapiens, UniProt P04150).
T5 sequence (P04150 whole entry): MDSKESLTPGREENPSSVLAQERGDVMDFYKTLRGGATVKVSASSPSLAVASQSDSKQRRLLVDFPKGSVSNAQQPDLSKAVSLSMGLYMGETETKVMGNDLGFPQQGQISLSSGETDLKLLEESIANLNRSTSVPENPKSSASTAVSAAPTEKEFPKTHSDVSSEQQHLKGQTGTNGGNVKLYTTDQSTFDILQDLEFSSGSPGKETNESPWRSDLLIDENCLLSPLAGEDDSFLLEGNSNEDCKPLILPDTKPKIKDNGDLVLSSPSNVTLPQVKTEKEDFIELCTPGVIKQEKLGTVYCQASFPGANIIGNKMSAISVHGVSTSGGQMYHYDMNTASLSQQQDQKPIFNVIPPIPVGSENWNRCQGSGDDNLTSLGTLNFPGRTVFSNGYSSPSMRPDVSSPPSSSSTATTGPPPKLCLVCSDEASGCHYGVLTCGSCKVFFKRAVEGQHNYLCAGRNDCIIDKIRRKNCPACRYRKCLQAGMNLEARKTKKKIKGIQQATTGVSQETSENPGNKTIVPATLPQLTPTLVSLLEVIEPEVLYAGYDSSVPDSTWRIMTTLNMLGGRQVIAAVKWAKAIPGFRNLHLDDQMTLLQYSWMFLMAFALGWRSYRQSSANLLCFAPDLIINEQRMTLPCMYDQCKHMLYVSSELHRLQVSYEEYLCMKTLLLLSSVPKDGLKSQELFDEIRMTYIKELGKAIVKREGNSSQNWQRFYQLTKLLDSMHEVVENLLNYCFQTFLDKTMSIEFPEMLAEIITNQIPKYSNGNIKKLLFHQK

Assay [11] addresses T1, Gamma-aminobutyric acid receptor subunit alpha-1. The assay is classed as functional.
Further: assay procedure not described here.

T1 sequence (P62813 whole entry): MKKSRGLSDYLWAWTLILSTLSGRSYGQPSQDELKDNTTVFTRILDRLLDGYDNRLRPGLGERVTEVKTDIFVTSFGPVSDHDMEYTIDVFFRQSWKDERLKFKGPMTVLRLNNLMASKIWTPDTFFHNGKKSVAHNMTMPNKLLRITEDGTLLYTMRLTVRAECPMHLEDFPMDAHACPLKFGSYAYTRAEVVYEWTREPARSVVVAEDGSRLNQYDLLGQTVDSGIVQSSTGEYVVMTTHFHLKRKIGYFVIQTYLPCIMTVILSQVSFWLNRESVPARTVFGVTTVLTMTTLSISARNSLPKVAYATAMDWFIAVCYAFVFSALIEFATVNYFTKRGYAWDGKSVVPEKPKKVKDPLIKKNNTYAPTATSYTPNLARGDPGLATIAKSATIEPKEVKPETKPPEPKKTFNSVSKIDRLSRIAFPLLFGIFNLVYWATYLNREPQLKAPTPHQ
Adenosine receptor A2a, sequence (P29274 whole entry): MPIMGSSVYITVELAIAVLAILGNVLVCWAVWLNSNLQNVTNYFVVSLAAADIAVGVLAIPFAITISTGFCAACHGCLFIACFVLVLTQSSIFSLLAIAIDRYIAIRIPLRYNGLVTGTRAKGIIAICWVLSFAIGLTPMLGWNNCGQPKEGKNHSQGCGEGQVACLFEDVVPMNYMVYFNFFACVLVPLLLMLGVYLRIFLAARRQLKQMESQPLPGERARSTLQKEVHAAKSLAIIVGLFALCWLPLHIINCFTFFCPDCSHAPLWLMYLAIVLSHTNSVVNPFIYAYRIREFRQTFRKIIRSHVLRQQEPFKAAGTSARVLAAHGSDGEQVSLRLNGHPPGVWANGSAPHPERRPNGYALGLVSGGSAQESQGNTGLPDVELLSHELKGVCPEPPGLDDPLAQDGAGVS
Beta-2 adrenergic receptor, sequence (P07550 whole entry): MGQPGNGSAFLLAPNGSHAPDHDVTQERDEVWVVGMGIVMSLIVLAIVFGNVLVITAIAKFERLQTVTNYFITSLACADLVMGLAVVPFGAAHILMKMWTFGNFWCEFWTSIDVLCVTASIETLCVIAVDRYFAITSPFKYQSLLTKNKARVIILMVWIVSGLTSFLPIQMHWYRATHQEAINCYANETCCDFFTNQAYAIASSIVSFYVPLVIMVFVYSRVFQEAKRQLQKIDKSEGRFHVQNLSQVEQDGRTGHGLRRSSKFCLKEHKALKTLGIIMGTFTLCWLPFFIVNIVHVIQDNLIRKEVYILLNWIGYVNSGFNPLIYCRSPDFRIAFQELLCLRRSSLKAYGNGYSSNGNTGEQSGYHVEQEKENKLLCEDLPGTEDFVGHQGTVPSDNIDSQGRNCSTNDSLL
Histamine H3 receptor, sequence (Q9Y5N1 whole entry): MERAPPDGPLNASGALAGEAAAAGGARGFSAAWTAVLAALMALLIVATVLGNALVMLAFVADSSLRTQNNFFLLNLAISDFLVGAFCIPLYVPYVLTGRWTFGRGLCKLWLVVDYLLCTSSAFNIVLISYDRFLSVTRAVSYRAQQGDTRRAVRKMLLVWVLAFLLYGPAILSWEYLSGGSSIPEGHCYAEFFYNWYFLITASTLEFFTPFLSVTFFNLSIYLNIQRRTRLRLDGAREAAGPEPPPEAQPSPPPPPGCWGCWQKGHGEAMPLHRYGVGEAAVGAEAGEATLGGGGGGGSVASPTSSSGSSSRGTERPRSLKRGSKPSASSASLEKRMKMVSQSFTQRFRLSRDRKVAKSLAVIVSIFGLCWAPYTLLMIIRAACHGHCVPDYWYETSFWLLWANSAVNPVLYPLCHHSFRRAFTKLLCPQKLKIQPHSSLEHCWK

One may read the AC50 as the concentration giving half of the maximal activity seen. As for `CN1C(=O)OC(C)(C)C1=O` [TRIMETHADIONE], the AC50 in assay [1], in assay [2], in [3], in assay [4], in assay [5] and in assay [6] was over 10 µM in each case. Besides, the AC50 in [7], in [8], in [9], in assay [10] and in assay [11] was over 10 µM throughout.

Consider `C=CCN1CCCC1CNC(=O)c1cc(S(N)(=O)=O)cc(OC)c1OC` (configuration not stated) [VERALIPRIDE], for which the concentration at half-maximal activity (AC50) in [1] was over 30 µM; in [2] it was 23 µM; in assay [3], over 30 µM; in assay [4], over 30 µM; in assay [5], over 30 µM; in assay [6], over 30 µM. Moreover, the concentration at half-maximal activity (AC50) in assay [7], in assay [8], in assay [9], in assay [10] and in [11] was over 30 µM in each case.
